# Data published in patent US20190314382A1, “COMPOUNDS AND PHARMACEUTICAL COMPOSITIONS THEREOF FOR THE TREATMENT OF INFLAMMATORY DISEASES” (Galapagos NV, priority 2016, published 2019).
# How the values were obtained:
# Assay type in all cases: in vivo, human
# Conditions in all cases: observed case
# IL-17A = experiment: Biomarker study in RA subjects: serum IL-17A, Luminex 18-Plex
# Procedure: (§1) Double-blind, placebo-controlled add on study in subjects with moderately to severely active RA who have an inadequate response to MTX (oral or parenteral).
# (§2) 595 subjects randomized to one of 6 dose regimens of Compound 1 (dosed as a [Compound 1:HCl:3H2O]) (3 dose levels administered either once or twice daily) or placebo on top of each subject's stable dose of MTX.
# (§3) Compound 1 (dosed as a [Compound 1:HCl:3H2O]) is dosed for twelve weeks once daily (q.d.) (50 mg, 100 mg or 200 mg) or twice daily (b.i.d.) (25 mg, 50 mg or 100 mg); or placebo.
# (§4) 18 parameters from human serum samples (GM-CSF, IFNγ, IL-1β, IL-2, IL-4, IL-5, IL-6, IL-7, IL-8, IL-10, IL-12 (p70), IL-13, IL-17A, IL-21, IL-23, MIP-1α, MIP-1β and TNF-α) are analyzed on a Luminex Plateform (BioPlex® L200) using a Luminex 18-Plex Kit (Millipore: HSTCMAG-28SK).
# (§5) Coupled beads react with the sample containing the biomarker of interest. […] Phycoerythrin (PE) serves as a fluorescent indicator.
# (§6) The concentration of bead bound analyte is proportional to the MFI (Median Fluorescent Intensity) and back-calculated from interpolation with the calibration curve fitted with a 4 or 5 parameters logistic (4PL or 5PL) regression model selected during method pre-validation.
# (§7) Treatment effect was assessed using an ANCOVA model on the changes from baseline, with factors: treatment, baseline value of the PD marker, geographical region and previous use of biologics.
# IL-1β = experiment: Biomarker study in RA subjects: serum IL-1β, Luminex 18-Plex
# Procedure: as §1, §2, §3, §4, §5, §6, §7
# IL-6 = experiment: Biomarker study in RA subjects: serum IL-6, Luminex 18-Plex
# Procedure: as §1, §2, §3, §4, §5, §6, §7
# IL-8 = experiment: Biomarker study in RA subjects: serum IL-8, Luminex 18-Plex
# Procedure: as §1, §2, §3, §4, §5, §6, §7
# IL-21 = experiment: Biomarker study in RA subjects: serum IL-21, Luminex 18-Plex
# Procedure: as §1, §2, §3, §4, §5, §6, §7
# IL-13 = experiment: Biomarker study in RA subjects: serum IL-13, Luminex 18-Plex
# Procedure: as §1, §2, §3, §4, §5, §6, §7
# IL-10 = experiment: Biomarker study in RA subjects: serum IL-10, Luminex 18-Plex
# Procedure: as §1, §2, §3, §4, §5, §6, §7
# [1] = 100 mg bid, Week 12, N = 79, RA subjects on MTX
# [2] = 100 mg qd, Week 4, N = 68, RA subjects on MTX
# [3] = 100 mg qd, Week 12, N = 68, RA subjects on MTX
# [4] = 200 mg qd, Week 4, N = 75, RA subjects on MTX
# [5] = 200 mg qd, Week 12, N = 75, RA subjects on MTX
# [6] = 50 mg bid, Week 4, N = 73, RA subjects on MTX
# [7] = 50 mg bid, Week 12, N = 73, RA subjects on MTX
# [8] = 100 mg bid, Week 4, N = 79, RA subjects on MTX
compound,measurement,setting,value
"O=C(Nc1nc2cccc(-c3ccc(CN4CCS(=O)(=O)CC4)cc3)n2n1)C1CC1 [Compound 1, cyclopropanecarboxylic acid {5-[4-(1,1-dioxo-thiomorpholin-4-ylmethyl)-phenyl]-[1,2,4]triazolo[1,5-a]pyridin-2yl}-amide]",IL-17α Mean change from baseline at Week 12,IL-17A; [1],-1.9 pg/mL
same,IL-17α Mean change from baseline at Week 4,IL-17A; [2],-5.9 pg/mL
same,IL-17α Mean change from baseline at Week 12,IL-17A; [3],-7.4 pg/mL
same,IL-17α Mean change from baseline at Week 4,IL-17A; [4],-1.6 pg/mL
same,IL-17α Mean change from baseline at Week 12,IL-17A; [5],-0.9 pg/mL
same,IL-1βb Mean change from baseline at Week 4,IL-1β; [6],1.4 pg/mL
same,IL-1βb Mean change from baseline at Week 12,IL-1β; [7],-0.9 pg/mL
same,IL-1βb Mean change from baseline at Week 4,IL-1β; [8],-1.0 pg/mL
same,IL-1βb Mean change from baseline at Week 12,IL-1β; [1],-1.8 pg/mL
same,IL-1βb Mean change from baseline at Week 4,IL-1β; [2],-0.6 pg/mL
same,IL-1βb Mean change from baseline at Week 12,IL-1β; [3],-1.2 pg/mL
same,IL-1βb Mean change from baseline at Week 4,IL-1β; [4],-0.6 pg/mL
same,IL-1βb Mean change from baseline at Week 12,IL-1β; [5],-1.6 pg/mL
same,IL-6 Mean change from baseline at Week 4,IL-6; [6],-4.2 pg/mL
same,IL-6 Mean change from baseline at Week 12,IL-6; [7],-6.0 pg/mL
same,IL-6 Mean change from baseline at Week 4,IL-6; [8],-11.0 pg/mL
same,IL-6 Mean change from baseline at Week 12,IL-6; [1],-14.1 pg/mL
same,IL-6 Mean change from baseline at Week 4,IL-6; [2],-7.0 pg/mL
same,IL-6 Mean change from baseline at Week 12,IL-6; [3],-8.0 pg/mL
same,IL-6 Mean change from baseline at Week 4,IL-6; [4],-9.6 pg/mL
same,IL-6 Mean change from baseline at Week 12,IL-6; [5],-11.2 pg/mL
same,IL-8 Mean change from baseline at Week 4,IL-8; [6],2.3 pg/mL
same,IL-8 Mean change from baseline at Week 12,IL-8; [7],6.9 pg/mL
same,IL-8 Mean change from baseline at Week 4,IL-8; [8],-1.8 pg/mL
same,IL-8 Mean change from baseline at Week 12,IL-8; [1],2.4 pg/mL
same,IL-8 Mean change from baseline at Week 4,IL-8; [2],4.1 pg/mL
same,IL-8 Mean change from baseline at Week 12,IL-8; [3],0.7 pg/mL
same,IL-8 Mean change from baseline at Week 4,IL-8; [4],-2.0 pg/mL
same,IL-8 Mean change from baseline at Week 12,IL-8; [5],-1.6 pg/mL
same,IL-21 Mean change from baseline at Week 4,IL-21; [6],-0.1 pg/mL
same,IL-21 Mean change from baseline at Week 12,IL-21; [7],-1.6 pg/mL
same,IL-21 Mean change from baseline at Week 4,IL-21; [8],-1.6 pg/mL
same,IL-21 Mean change from baseline at Week 12,IL-21; [1],-2.8 pg/mL
same,IL-21 Mean change from baseline at Week 4,IL-21; [2],-0.3 pg/mL
same,IL-21 Mean change from baseline at Week 12,IL-21; [3],0.5 pg/mL
same,IL-21 Mean change from baseline at Week 4,IL-21; [4],-1.4 pg/mL
same,IL-21 Mean change from baseline at Week 12,IL-21; [5],-2.3 pg/mL
same,IL-13 Mean change from baseline at Week 4,IL-13; [6],-0.6 pg/mL
same,IL-13 Mean change from baseline at Week 12,IL-13; [7],-1.1 pg/mL
same,IL-13 Mean change from baseline at Week 4,IL-13; [8],-1.5 pg/mL
same,IL-13 Mean change from baseline at Week 12,IL-13; [1],-2.9 pg/mL
same,IL-13 Mean change from baseline at Week 4,IL-13; [2],-0.6 pg/mL
same,IL-13 Mean change from baseline at Week 12,IL-13; [3],-1.5 pg/mL
same,IL-13 Mean change from baseline at Week 4,IL-13; [4],-0.9 pg/mL
same,IL-13 Mean change from baseline at Week 12,IL-13; [5],-2.2 pg/mL
same,IL-10 Mean change from baseline at Week 4,IL-10; [6],-2.1 pg/mL
same,IL-10 Mean change from baseline at Week 12,IL-10; [7],-3.7 pg/mL
same,IL-10 Mean change from baseline at Week 4,IL-10; [8],-3.3 pg/mL
same,IL-10 Mean change from baseline at Week 12,IL-10; [1],-4.2 pg/mL
same,IL-10 Mean change from baseline at Week 4,IL-10; [2],0.1 pg/mL
same,IL-10 Mean change from baseline at Week 12,IL-10; [3],-0.1 pg/mL
same,IL-10 Mean change from baseline at Week 4,IL-10; [4],-0.5 pg/mL
same,IL-10 Mean change from baseline at Week 12,IL-10; [5],-1.5 pg/mL
